Data as given in patent US7981936B2, “Crystalline ACAT inhibitor” (Graceway Pharmaceuticals, LLC, priority 2005, dated 2011).

melting point: 102.3 °C
Structure (SMILES): CC(C)c1cccc(C(C)C)c1NC(=O)CC(=O)N(Cc1ccccc1)C(C)C [Form A polymorph, N-benzyl-N′-(2,6-diisopropyl-phenyl)-N-isopropyl-malonamide]
